Measured values as given in patent US8173360B2, “Cell death inhibitor” (Takeda Pharmaceutical Company Limited, priority 2002, dated 2012).

Key:
[1] = tested on: primary cardiomyocytes derived from rat neonates; assay: Inhibitory activity against myocardial cell death induced by doxorubicin; format: cell-based; conditions: doxorubicin 200 μM, 18 hours; sample added 3 hours before
Description: Medium 199 and a sample to be tested were added thereto, followed by incubation for 3 hours. After the incubation, doxorubicin (DOX: final concentration of 200 μM) was added to the mixture, which was incubated for further 18 hours to induce cell death. Subsequently, fetal cow serum was added thereto to reach 10%. […] Thus, the myocardial cell death inhibitory activity was examined.

[2] = tested on: primary cardiomyocytes derived from rat neonates; conditions: simvastatin 0.3 μM or atorvastatin 1 μM, 3 days
Description: The primary cardiomyocytes derived from rat neonates obtained in EXPERIMENTAL EXAMPLE 2 were suspended in Medium 199 containing 10% fetal cow serum in 6×10^5 cells/ml, and the suspension was seeded on a 96-well plate in 0.1 mlwell, followed by incubation for a day in a CO2 incubator set at 37° C. and 5% CO2. After stirring with a micromixer (manufactured by Taiyo Kagaku Kogyo Co., Ltd.), the medium was replaced 3 times with serum-free Medium 199 to remove serum. […] Thereafter, fetal cow serum was added thereto to become 10%. After further incubation in a CO2 incubator set at 37° C. and 5% CO2 for about 17 hours, the viable cell count was determined using a cell count assay kit (manufactured by Dojin Chemical Laboratory) in which WST-8 was used as a chromogen, thereby to examine the inhibitory activity of myocardial cell death induced by the statin. The experiment described above was carried out independently in 3 runs. The viable cell count in each of the experimental groups was named the mean value (±SD) of the viable cell counts in each experimental group, when the viable cell count in the group with no statin added was made 1.

heme oxygenase-1 = assay: Heme oxygenase-1 production-increasing activity (western blotting); format: cell-based, rat; conditions: for Increasing Rate of Production (heme oxygenase-1): 24 hours, without compound = 1
Description: The plate was washed 3 times with Medium 199 medium to remove serum. Compound I was added to the plate, followed by incubation for 24 hours at 37° C. and 5% CO2. After completion of the incubation, the cardiomyocytes were washed once with PBS(−), and 100 μl of cell lysis buffer [10 mM Tris(hydroxymethyl)aminomethane, pH 7.4, 150 mM NaCl, 1 mM EDTA.2Na, 1 mM ethylene glycol-bis(β-aminoethylether]-N,N,N′,N′-tetraacetic acid, 0.5 mM (p-aminophenyl)methanesulfonyl fluoride hydrochloride, 200 μM sodium β-glycerophosphate n-hydrate, 20 mM NaF, 2 mM sodium diphosphate decahydrate, 10 μg/ml aprotinin, 10 μg/ml leupeptin, 1% Triton X-100, 0.5% Nonidet P40, 0.1% sodium dodesyl sulfate) was added thereto. After the cell debris was scraped from the plate using a cell scraper, the cell lysis buffer was recovered. The recovered cell lysis buffer was mixed with a sample buffer (Tris-SDS-ME Sample Buffer; manufactured by Daiichi Pure Chemicals Co., Ltd.) in an equal volume. The mixture was heat-treated at 95° C. for 5 minutes, followed by SDS polyacrylamide electrophoresis using Multigel (manufactured by Daiichi Pure Chemicals Co., Ltd.). Next, nitrocellulose membrane (Hybond-ECL; manufactured by Amersham Pharmacia Biotech) soaked in a blotting buffer [0.1 M Tris(hydroxymethyl)aminomethane, 0.192 M glycine, 20% ethanol] for at least 10 minutes, blotting filter paper, dialysis membrane and gel were set on Horize-Blot (manufactured by ATTO, Co.) and treated with 100 mA/gel (64 cm^2) for an hour to adsorb the protein in the gel onto the nitrocellulose membrane. Thereafter, the nitrocellulose membrane was soaked in a blocking buffer [TTBS buffer (20 mM Tris-HCl, pH 7.6, 0.137 M NaCl, 0.1% Tween-20) containing 5% skimmed milk powders] and stirred at room temperature for an hour for blocking. […] After completion of the reaction, the membrane was washed 3 times with TTBS buffer and the amount of protein was determined using a western blotting detection reagent (ECL+Plus; manufactured by Amersham) and Hyperfilm ECL (manufactured by Amersham). […]

rat MIF = target: T1, rat MIF (Rattus norvegicus, UniProt P30904); assay: Binding to immobilized rat MIF by surface plasmon resonance (BIACORE 3000); conditions: 10 μM in PBS, rat MIF immobilized on sensor chip CM5
T1 construct: the region encoding MIF was amplified from the complementary DNA (cDNA) library of rat and mouse brains; made in house; host or cells: Escherichia coli BL21 (DE3)
Description: The binding of rat MIF obtained in REFERENCE EXAMPLE 6 to Compound 1 obtained in REFERENCE EXAMPLE 1 was analyzed using BIACORE 3000 (manufactured by Biacore).
Rat MIF was immobilized on a sensor chip CM5 (manufactured by Biacore). Then, phosphate buffered saline (PBS) containing 10 μM of Compound 1 was flown over the sensor chip and changes in the surface plasmon resonance signal were monitored as the binding of the compound to rat MIF.
Rat MIF obtained in REFERENCE EXAMPLE 6 was immobilized on a sensor chip CM5 (manufactured by Biacore Co., Ltd.). Thereafter, phosphate buffered saline (PBS) containing 10 μM of 3-[2-(4-oxo-4H-1,3-benzothiazin-2-yl)-4-pyridyl]propionic acid (the compound of EXAMPLE 308 described in WO 03/020719) was flown over the sensor chip and changes in surface plasmon resonance signal were monitored as the binding of the compound to rat MIF.

## O=c1nc(-c2ccccn2)sc2ccccc12 [Compound 1, 2-(2-Pyridyl)-4H-1,3-benzothiazin-4-one]
[1]
  inhibition of myocardial cell death induced by doxorubicin: exhibits the activity of inhibiting myocardial cell death induced by doxorubicin
[2]
  inhibition of myocardial cell death induced by statin: exhibits the activity of inhibiting myocardial cell death induced by the HMG-CoA reductase inhibitor
Heme oxygenase-1; 0.04 μM
  Increasing Rate of Production (heme oxygenase-1): 1.6
Heme oxygenase-1; 0.4 μM
  Increasing Rate of Production (heme oxygenase-1): 2.5
Heme oxygenase-1; statement in words
  production amount of heme oxygenase-1: increases the production amount of heme oxygenase-1
Rat MIF
  binding of the compound to rat MIF (changes in surface plasmon resonance signal): binds to MIF
